# Test results taken from ChEMBL document CHEMBL4041509, “Structure-activity relationship study of novel 2-aminobenzofuran derivatives as P-glycoprotein inhibitors” (Eur J Med Chem, 2017).
# How the values were obtained:
# [1] = target: T1, ATP-dependent translocase ABCB1 (Homo sapiens, UniProt P08183); assay: Inhibition of ABCB1 (unknown origin) expressed in Flp-In-293 cells assessed as increase in calcein-AM uptake at 2.5 uM preincubated for 30 mins followed by calcein-AM addition measured after 30 mins by fluorescence spectrometric method relative to control; type: cell-based; conditions: 0.5 h
# [2] = target: T1, ATP-dependent translocase ABCB1; assay: Inhibition of ABCB1 (unknown origin) expressed in Flp-In-293 cells assessed as increase in calcein-AM uptake at 5 uM preincubated for 30 mins followed by calcein-AM addition measured after 30 mins by fluorescence spectrometric method relative to control; type: cell-based; conditions: 0.5 h
# [3] = target: T1, ATP-dependent translocase ABCB1; assay: Inhibition of ABCB1 (unknown origin) expressed in Flp-In-293 cells assessed as increase in calcein-AM uptake at 10 uM preincubated for 30 mins followed by calcein-AM addition measured after 30 mins by fluorescence spectrometric method relative to control; type: cell-based; conditions: 0.5 h
# Homo sapiens [4] = species: Homo sapiens; assay: Inhibition of P-gp in human KBVIN cells assessed as potentiation of doxorubicin-induced cytotoxicity at 2.5 uM by SRB assay relative to control; type: cell-based
# Homo sapiens [5] = species: Homo sapiens; assay: Inhibition of P-gp in human KBVIN cells assessed as potentiation of vincristine-induced cytotoxicity at 2.5 uM by SRB assay relative to control; type: cell-based
# Homo sapiens [6] = species: Homo sapiens; assay: Inhibition of P-gp in human KBVIN cells assessed as potentiation of paclitaxel-induced cytotoxicity at 1 uM by SRB assay relative to control; type: cell-based
# Homo sapiens [7] = species: Homo sapiens; assay: Inhibition of P-gp in human HeLaS3 cells assessed as potentiation of doxorubicin-induced cytotoxicity at 2.5 uM by SRB assay relative to control; type: cell-based
# HEK293 [8] = assay: Potentiation of vincristine-induced cytotoxicity against human Flp-In-293 cells at 2.5 uM by SRB assay relative to control; type: functional
# Homo sapiens [9] = species: Homo sapiens; assay: Inhibition of P-gp in human HeLaS3 cells assessed as potentiation of paclitaxel-induced cytotoxicity at 1 uM by SRB assay relative to control; type: cell-based
# Homo sapiens [10] = species: Homo sapiens; assay: Inhibition of P-gp in human KBVIN cells assessed as potentiation of doxorubicin-induced cytotoxicity at 1 uM by SRB assay relative to control; type: cell-based
# HEK293 [11] = assay: Potentiation of paclitaxel-induced cytotoxicity against human Flp-In-293 cells at 2.5 uM by SRB assay relative to control; type: functional
# Homo sapiens [12] = species: Homo sapiens; assay: Inhibition of P-gp in human KBVIN cells assessed as potentiation of vincristine-induced cytotoxicity at 1 uM by SRB assay relative to control; type: cell-based
# HEK293 [13] = assay: Potentiation of doxorubicin-induced cytotoxicity against human Flp-In-293 cells at 1 uM by SRB assay relative to control; type: functional
# Homo sapiens [14] = species: Homo sapiens; assay: Inhibition of P-gp in human HeLaS3 cells assessed as potentiation of doxorubicin-induced cytotoxicity at 1 uM by SRB assay relative to control; type: cell-based
# Homo sapiens [15] = species: Homo sapiens; assay: Inhibition of P-gp in human HeLaS3 cells assessed as potentiation of vincristine-induced cytotoxicity at 2.5 uM by SRB assay relative to control; type: cell-based
# HeLa S3 = assay: Cytotoxicity against human HeLaS3 assessed as reduction in cell viability by SRB assay; type: cell-based
# HEK293 [16] = assay: Potentiation of vincristine-induced cytotoxicity against human Flp-In-293 cells at 1 uM by SRB assay relative to control; type: functional
# HEK293 [17] = assay: Potentiation of paclitaxel-induced cytotoxicity against human Flp-In-293 cells at 1 uM by SRB assay relative to control; type: functional
# Homo sapiens [18] = species: Homo sapiens; assay: Inhibition of P-gp in human HeLaS3 cells assessed as potentiation of vincristine-induced cytotoxicity at 1 uM by SRB assay relative to control; type: cell-based
# Homo sapiens [19] = species: Homo sapiens; assay: Inhibition of P-gp in human KBVIN cells assessed as potentiation of paclitaxel-induced cytotoxicity at 2.5 uM by SRB assay relative to control; type: cell-based
# HEK293 [20] = assay: Potentiation of doxorubicin-induced cytotoxicity against human Flp-In-293 cells at 2.5 uM by SRB assay relative to control; type: functional
# T1 sequence (P08183 whole entry): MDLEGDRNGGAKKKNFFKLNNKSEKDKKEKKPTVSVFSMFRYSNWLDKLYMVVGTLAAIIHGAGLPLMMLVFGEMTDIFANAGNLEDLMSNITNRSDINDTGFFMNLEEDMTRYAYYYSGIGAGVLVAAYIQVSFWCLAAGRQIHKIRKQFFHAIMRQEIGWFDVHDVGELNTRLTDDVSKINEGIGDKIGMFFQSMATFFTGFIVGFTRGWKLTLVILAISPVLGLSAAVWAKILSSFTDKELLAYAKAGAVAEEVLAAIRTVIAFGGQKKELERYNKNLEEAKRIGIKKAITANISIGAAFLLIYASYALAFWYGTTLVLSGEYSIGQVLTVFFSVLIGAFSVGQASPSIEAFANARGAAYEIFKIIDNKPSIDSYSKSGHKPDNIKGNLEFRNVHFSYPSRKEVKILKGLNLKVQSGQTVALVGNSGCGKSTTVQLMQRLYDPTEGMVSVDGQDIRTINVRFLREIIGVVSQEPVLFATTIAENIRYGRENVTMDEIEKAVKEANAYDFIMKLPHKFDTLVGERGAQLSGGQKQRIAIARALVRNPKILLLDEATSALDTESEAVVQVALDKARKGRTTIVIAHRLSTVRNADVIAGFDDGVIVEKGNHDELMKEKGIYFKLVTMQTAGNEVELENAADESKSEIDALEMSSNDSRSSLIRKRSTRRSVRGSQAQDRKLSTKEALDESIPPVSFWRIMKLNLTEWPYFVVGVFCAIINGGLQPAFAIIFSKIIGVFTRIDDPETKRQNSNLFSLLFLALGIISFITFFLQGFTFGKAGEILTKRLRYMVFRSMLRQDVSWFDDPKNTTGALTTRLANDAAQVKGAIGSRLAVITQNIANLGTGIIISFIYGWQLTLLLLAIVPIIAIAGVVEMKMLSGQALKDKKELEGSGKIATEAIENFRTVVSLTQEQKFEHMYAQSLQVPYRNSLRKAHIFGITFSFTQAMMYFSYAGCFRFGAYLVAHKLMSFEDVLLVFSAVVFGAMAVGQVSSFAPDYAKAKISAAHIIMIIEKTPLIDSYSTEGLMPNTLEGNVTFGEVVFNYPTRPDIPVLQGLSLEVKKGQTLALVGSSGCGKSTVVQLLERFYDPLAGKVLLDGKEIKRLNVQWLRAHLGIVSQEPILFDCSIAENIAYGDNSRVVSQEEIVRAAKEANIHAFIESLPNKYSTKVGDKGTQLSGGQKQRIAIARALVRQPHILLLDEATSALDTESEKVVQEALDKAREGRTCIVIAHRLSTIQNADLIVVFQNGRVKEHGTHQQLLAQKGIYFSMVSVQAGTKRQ
Structure (SMILES),fold change (FC) [1],fold change (FC) [2],fold change (FC) [3],also measured
COc1ccc(CCN(C)CCCC(C#N)(c2ccc(OC)c(OC)c2)C(C)C)cc1OC (configuration not stated),–,–,–,fold change (FC) (Homo sapiens [4]): 6.69; fold change (FC) (Homo sapiens [5]): 46.1; fold change (FC) (Homo sapiens [6]): 5.13; fold change (FC) (Homo sapiens [7]): 2.82; fold change (FC) (HEK293 [8]): 9.54; fold change (FC) (Homo sapiens [9]): 3.91; fold change (FC) (Homo sapiens [10]): 1.61; fold change (FC) (HEK293 [11]): 1.37; fold change (FC) (Homo sapiens [12]): 24; fold change (FC) (HEK293 [13]): 1.04; fold change (FC) (Homo sapiens [14]): 1.33; fold change (FC) (Homo sapiens [15]): 1.59; IC50 (HeLa S3): > 50 µM; fold change (FC) (HEK293 [16]): 1.82; fold change (FC) (HEK293 [17]): 1.49; fold change (FC) (Homo sapiens [18]): 1.27; fold change (FC) (Homo sapiens [19]): 22.9; fold change (FC) (HEK293 [20]): 0.8
COc1ccc(-c2cc(OC(C)=O)c3c(-c4ccc(OC)cc4)c(N)oc3c2)cc1,1.17,1.75,–,–
COc1ccc(-c2cc(OCCN3CCCCC3)c3c(-c4cccs4)c(N)oc3c2)cc1OC,–,6.06,–,–
COc1ccc(-c2cc(OC(C)=O)c3c(-c4c(Cl)cccc4Cl)c(N)oc3c2)cc1,1.34,1.81,–,–
COc1ccc(-c2cc(OCc3ccncc3)c3c(-c4cccs4)c(N)oc3c2)cc1OC,–,5.93,7.79,–
CC(=O)Oc1cc(-c2ccc3c(c2)OCO3)cc2oc(N)c(-c3cccs3)c12,0.96,0.86,–,–
COc1ccc(-c2cc(OCCCN3CCCCC3)c3c(-c4cccs4)c(N)oc3c2)cc1OC,–,4.55,–,–
COc1ccc(-c2cc(OCCN3CCCCC3)c3c(-c4cccs4)c(N)oc3c2)cc1,–,7.53,5.66,–
COc1ccc(-c2cc(OC(C)=O)c3c(-c4ccccc4Cl)c(N)oc3c2)cc1,1.3,1.59,–,–
COc1ccc(-c2cc(OCc3ccc([N+](=O)[O-])cc3)c3c(-c4cccs4)c(N)oc3c2)cc1,–,0.78,0.85,–
COc1ccc(-c2cc(OC(C)=O)c3c(-c4cccc(Cl)c4)c(N)oc3c2)cc1,1.85,2.45,–,–
COc1ccc(-c2cc(OC(C)=O)c3c(-c4cccs4)c(N)oc3c2)cc1,1.9,2.2,–,–
COc1ccc(-c2cc(OC(C)=O)c3c(-c4ccccc4)c(N)oc3c2)cc1,1.7,2.27,–,–
COc1ccc(-c2cc(OCc3ccncc3)c3c(-c4cccs4)c(N)oc3c2)cc1,–,4.33,5.88,–
COc1ccc(-c2cc(OCc3ccccc3)c3c(-c4cccs4)c(N)oc3c2)cc1,–,0.81,0.85,–
COc1ccc(-c2cc(OC(C)=O)c3c(-c4ccc5c(c4)OCO5)c(N)oc3c2)cc1,1.3,1.48,–,–

# Now from value to compound, other results behind:
fold change (FC) [1],fold change (FC) [2],fold change (FC) [3],Structure (SMILES),also measured
1.52,2.2,–,COc1ccc(-c2cc(OC(C)=O)c3c(-c4ccc(Cl)cc4)c(N)oc3c2)cc1,–
0.89,1.13,–,COc1ccc(-c2cc(OC(C)=O)c3c(-c4cccnc4)c(N)oc3c2)cc1,–
–,6.64,8.86,COc1ccc(-c2cc(OCCN3CCOCC3)c3c(-c4cccs4)c(N)oc3c2)cc1,–
–,1.15,–,COc1ccc(-c2cc(O)c3c(-c4cccs4)c(N)oc3c2)cc1OC,–
–,8.42,8.85,COc1ccc(-c2cc(OCCN3CCOCC3)c3c(-c4cccs4)c(N)oc3c2)cc1OC,–
1.05,1.12,–,CC(=O)Oc1cccc2oc(N)c(-c3cccs3)c12,–
1.45,1.86,–,COc1ccc(-c2cc(OC(C)=O)c3c(-c4ccc(C)cc4)c(N)oc3c2)cc1,–
1.46,1.62,–,COc1ccc(-c2cc(O)c3c(-c4cccs4)c(N)oc3c2)cc1,–
3.75,4.35,–,COc1ccc(-c2cc(OC(C)=O)c3c(-c4cccs4)c(N)oc3c2)cc1OC,–
0.94,1.26,–,COc1ccc(-c2cc(OC(C)=O)c3c(-c4ccc(F)cc4)c(N)oc3c2)cc1,–
1.82,1.83,–,COc1ccc(-c2cc(OC(C)=O)c3c(-c4ccc(Cl)c(Cl)c4)c(N)oc3c2)cc1,–
–,3.22,4.33,COc1ccc(-c2cc(OCc3ccccn3)c3c(-c4cccs4)c(N)oc3c2)cc1,–
–,0.78,0.71,COc1ccc(-c2cc(OCc3cccc(OC)c3)c3c(-c4cccs4)c(N)oc3c2)cc1,–
1.32,1.49,–,COc1ccc(-c2cc(OC(C)=O)c3c(-c4ccccc4OC)c(N)oc3c2)cc1,–
1.31,1.82,–,COc1ccc(-c2cc(OC(C)=O)c3c(-c4ccccc4F)c(N)oc3c2)cc1,–
–,7.97,8.38,COc1ccc(-c2cc(OCc3ncc(C)c(OC)c3C)c3c(-c4cccs4)c(N)oc3c2)cc1,–
–,0.6,0.56,COc1ccc(-c2cc(OCc3cccc(Cl)c3)c3c(-c4cccs4)c(N)oc3c2)cc1,–
1.35,1.61,–,COc1ccc(-c2cc(OC(C)=O)c3c(-c4c(F)cccc4Cl)c(N)oc3c2)cc1,–
0.95,0.98,–,CC(=O)Oc1cc(-c2ccccc2)cc2oc(N)c(-c3cccs3)c12,–
–,8.85,10.14,CCN(CC)CCOc1cc(-c2ccc(OC)cc2)cc2oc(N)c(-c3cccs3)c12,–
–,3.68,4.72,COc1ccc(-c2cc(OCc3cccnc3)c3c(-c4cccs4)c(N)oc3c2)cc1,–
